Results taken from paper PMC6277767, “Broad and Region-Specific Impacts of the Synthetic Cannabinoid CP 55,940 in Adolescent and Adult Female Mouse Brains” (Frontiers in Molecular Neuroscience, 2018).

Test system: CD1 female mouse brain lipidome
Test: Brain-region lipid levels (HPLC/MS/MS lipidomics) 2 h after single i.p. 3 mg/kg CP 55,940 vs vehicle
Assay type: in vivo
Experimental: The Bloomington Institutional Animal Care and Use Committee of Indiana University reviewed and approved the animal procedures. Female mice from the CD1 strain were utilized to match our study examining THC’s effects on the brain lipidome ([Leishman et al., 2018]). Mice were given a single i.p. injection of either 3 mg/kg CP or 1:1:18 cremophor:ethanol:saline vehicle (please refer to the section “3 mg/kg CP Is Relevant for Synthetic Cannabinoid Abuse and Has Stronger Effects on the Female Mouse Brain Lipidome During Adolescence” for a justification of dose and use of female mice). Three different age groups were given injections: PND 35 and PND 50 adolescents, and adult mice (PND 113). At least eight mice in each age group received CP and at least eight received vehicle. Matching the THC study time course ([Leishman et al., 2018]), mice were sacrificed via rapid decapitation 2 h after injection. Brains were immediately removed and flash-frozen in liquid nitrogen, and then stored at -80°C until dissections were performed. Brains were dissected on an ice-cold dissection plate into the following regions: STR, HIPP, CER, THAL, CTX, HYP, MID, and STEM. These abbreviations for these brain areas will be used exclusively when discussing the results generated by these specific dissections. Each dissected area was immediately placed in liquid nitrogen and then stored at -80°C until used for lipid extraction.
Tissue extracts were performed as previously described ([Bradshaw et al., 2006]; [Stuart et al., 2013]; [Raboune et al., 2014]; [Leishman et al., 2016a],[b], [2017], [2018]). First, samples were shock frozen in liquid nitrogen, weighed, and transferred to a centrifuge tube. The mass of the largest sample was multiplied by 50 to determine how many milliliters of HPLC-grade methanol (Fisher, Fair Lawn, NJ, United States) to add. Then, samples were spiked with 500 pmol deuterium-labeled NAGly (d8NAGly; Cayman Chemical, Ann Arbor, MI, United States). Samples were placed on ice in darkness for 2 h then individually homogenized and centrifuged at 19,000 × g for 20 min at 20°C. Supernatants were diluted with HPLC water (purified in house) to make a solution of 75% water, 25% supernatant. Lipids were partially purified on C18 solid phase extraction columns (Agilent, Palo Alto, CA, United States). A series of four elutions with 1.5 mL of 60%, 75%, 85%, and 100% methanol were collected ([Stuart et al., 2013]; [Leishman et al., 2016a],[b], [2018]).
As previously described ([Bradshaw et al., 2006]; [Tan et al., 2006]; [Smoum et al., 2010]; [Stuart et al., 2013]; [Tortoriello et al., 2013]; [Raboune et al., 2014]; [Leishman et al., 2016a],[b], [2017], [2018]), samples were analyzed using an Applied Biosystems API 3000 triple quadrupole mass spectrometer with electrospray ionization (Foster City, CA, United States). Using an Agilent XDB-C18 reversed phase analytical column and optimized mobile phase gradients, 20 μL from each elution were chromatographed. Two Shimadzu 10ADvp pumps (Columbia, MD, United States) provided the pressure for gradient elution. Mobile phase A: 20% methanol, 80% water (v/v) and 1 mM ammonium acetate (Sigma, St. Louis, MO, United States). Mobile phase B: 100% methanol, 1 mM ammonium acetate. Every method run began with 0% mobile phase B, reached 100% mobile phase B flowing at 0.2 mL/min, and gradually returned to 0% mobile phase B.
This screening library will be referred to as the lipidome when discussing data from this study. HPLC/MS/MS data were analyzed using Analyst software (Applied Biosystems) ([Bradshaw et al., 2006]; [Tan et al., 2006]; [Stuart et al., 2013]; [Tortoriello et al., 2013]; [Raboune et al., 2014]; [Leishman et al., 2016a],[b], [2017], [2018]). Chromatograms (Supplementary Figure 3) were generated by determining the retention time of analytes from the analytical column with a [M-1] or [M+1] parent peak and a fragmentation peak corresponding to the programmed values. […]

CCCCCCC(C)(C)c1ccc([C@@H]2C[C@H](O)CC[C@H]2CCCO)c(O)c1 [CP 55,940]
PGF2α level vs vehicle (PND 35 HIPP): ↑ (1-1.49 times higher than vehicle)
number of lipids changed (PND 35 HIPP, 65 detected): 39
2-arachidonoyl glycerol level vs vehicle (PND 35 HYP): ↓↓↓ (2-2.99 times lower than vehicle)
2-linoleoyl glycerol level vs vehicle (PND 35 HYP): ↓↓ (1.50-1.99 times lower than vehicle)
2-oleoyl glycerol level vs vehicle (PND 35 HYP): ↓↓ (1.50-1.99 times lower than vehicle)
2-palmitoyl glycerol level vs vehicle (PND 35 HYP): ↑ (1-1.49 times higher than vehicle)
Arachidonic acid level vs vehicle (PND 35 HYP): ↓ (1-1.49 times lower than vehicle)
Linoleic acid level vs vehicle (PND 35 HYP): ↓ (1-1.49 times lower than vehicle)
N-arachidonoyl GABA level vs vehicle (PND 35 HYP): ↓ (1-1.49 times lower than vehicle)
N-arachidonoyl alanine level vs vehicle (PND 35 HYP): ↓↓ (1.50-1.99 times lower than vehicle)
N-arachidonoyl ethanolamine level vs vehicle (PND 35 HYP): ↓ (1-1.49 times lower than vehicle)
N-arachidonoyl glycine level vs vehicle (PND 35 HYP): ↓ (1-1.49 times lower than vehicle)
N-arachidonoyl phenylalanine level vs vehicle (PND 35 HYP): ↓ (1-1.49 times lower than vehicle)
N-arachidonoyl taurine level vs vehicle (PND 35 HYP): ↓ (1-1.49 times lower than vehicle)
N-docosahexaenoyl GABA level vs vehicle (PND 35 HYP): ↓ (1-1.49 times lower than vehicle)
N-docosahexaenoyl ethanolamine level vs vehicle (PND 35 HYP): ↓↓ (1.50-1.99 times lower than vehicle)
N-linoleoyl alanine level vs vehicle (PND 35 HYP): ↓ (1-1.49 times lower than vehicle)
N-oleoyl GABA level vs vehicle (PND 35 HYP): ↓ (1-1.49 times lower than vehicle)
N-oleoyl alanine level vs vehicle (PND 35 HYP): ↓ (1-1.49 times lower than vehicle)
N-oleoyl ethanolamine level vs vehicle (PND 35 HYP): ↓↓ (1.50-1.99 times lower than vehicle)
N-palmitoyl ethanolamine level vs vehicle (PND 35 HYP): ↓↓ (1.50-1.99 times lower than vehicle)
N-palmitoyl leucine level vs vehicle (PND 35 HYP): ↑ (1-1.49 times higher than vehicle)
N-stearoyl ethanolamine level vs vehicle (PND 35 HYP): ↓ (1-1.49 times lower than vehicle)
Oleic Acid level vs vehicle (PND 35 HYP): ↓ (1-1.49 times lower than vehicle)
PGE2 level vs vehicle (PND 35 HYP): ↓ (1-1.49 times lower than vehicle)
PGF2α level vs vehicle (PND 35 HYP): ↑ (1-1.49 times higher than vehicle)
phosphoLEA level vs vehicle (PND 35 HYP): ↑ (1-1.49 times higher than vehicle)
2-linoleoyl glycerol level vs vehicle (PND 35 MID): ↓ (1-1.49 times lower than vehicle)
6-ketoPGF1α level vs vehicle (PND 35 MID): ↓ (1-1.49 times lower than vehicle)
Arachidonic acid level vs vehicle (PND 35 MID): ↓ (1-1.49 times lower than vehicle)
N- stearoyl valine level vs vehicle (PND 35 MID): ↑ (1-1.49 times higher than vehicle)
N-arachidonoyl GABA level vs vehicle (PND 35 MID): ↓ (1-1.49 times lower than vehicle)
N-arachidonoyl alanine level vs vehicle (PND 35 MID): ↓ (1-1.49 times lower than vehicle)
N-arachidonoyl glycine level vs vehicle (PND 35 MID): ↓ (1-1.49 times lower than vehicle)
N-arachidonoyl serine level vs vehicle (PND 35 MID): ↓ (1-1.49 times lower than vehicle)
N-arachidonoyl taurine level vs vehicle (PND 35 MID): ↓ (1-1.49 times lower than vehicle)
N-arachidonoyl tyrosine level vs vehicle (PND 35 MID): ↓ (1-1.49 times lower than vehicle)
N-docosahexaenoyl GABA level vs vehicle (PND 35 MID): ↓ (1-1.49 times lower than vehicle)
N-docosahexaenoyl alanine level vs vehicle (PND 35 MID): ↓ (1-1.49 times lower than vehicle)
N-docosahexaenoyl glycine level vs vehicle (PND 35 MID): ↓ (1-1.49 times lower than vehicle)
N-docosahexaenoyl leucine level vs vehicle (PND 35 MID): ↑ (1-1.49 times higher than vehicle)
N-docosahexaenoyl methionine level vs vehicle (PND 35 MID): ↓ (1-1.49 times lower than vehicle)
N-docosahexaenoyl serine level vs vehicle (PND 35 MID): ↓ (1-1.49 times lower than vehicle)
N-docosahexaenoyl tyrosine level vs vehicle (PND 35 MID): ↓ (1-1.49 times lower than vehicle)
N-docosahexaenoyl valine level vs vehicle (PND 35 MID): ↑↑ (1.50-1.99 times higher than vehicle)
N-linoleoyl ethanolamine level vs vehicle (PND 35 MID): ↑ (1-1.49 times higher than vehicle)
N-oleoyl GABA level vs vehicle (PND 35 MID): ↓ (1-1.49 times lower than vehicle)
N-oleoyl ethanolamine level vs vehicle (PND 35 MID): ↓ (1-1.49 times lower than vehicle)
N-oleoyl phenylalanine level vs vehicle (PND 35 MID): ↑ (1-1.49 times higher than vehicle)
N-oleoyl valine level vs vehicle (PND 35 MID): ↑ (1-1.49 times higher than vehicle)
N-palmitoyl leucine level vs vehicle (PND 35 MID): ↑ (1-1.49 times higher than vehicle)
N-palmitoyl phenylalanine level vs vehicle (PND 35 MID): ↑ (1-1.49 times higher than vehicle)
N-palmitoyl valine level vs vehicle (PND 35 MID): ↑↑ (1.50-1.99 times higher than vehicle)
N-stearoyl methionine level vs vehicle (PND 35 MID): ↑ (1-1.49 times higher than vehicle)
N-stearoyl tyrosine level vs vehicle (PND 35 MID): ↓ (1-1.49 times lower than vehicle)
PGE2 level vs vehicle (PND 35 MID): ↑ (1-1.49 times higher than vehicle)
PGF2α level vs vehicle (PND 35 MID): ↑ (1-1.49 times higher than vehicle)
phosphoLEA level vs vehicle (PND 35 MID): ↑ (1-1.49 times higher than vehicle)
2-arachidonoyl glycerol level vs vehicle (PND 35 STEM): ↓ (1-1.49 times lower than vehicle)
2-linoleoyl glycerol level vs vehicle (PND 35 STEM): ↓ (1-1.49 times lower than vehicle)
N- stearoyl valine level vs vehicle (PND 35 STEM): ↑ (1-1.49 times higher than vehicle)
N-arachidonoyl GABA level vs vehicle (PND 35 STEM): ↓ (1-1.49 times lower than vehicle)
N-arachidonoyl taurine level vs vehicle (PND 35 STEM): ↓ (1-1.49 times lower than vehicle)
N-docosahexaenoyl leucine level vs vehicle (PND 35 STEM): ↑ (1-1.49 times higher than vehicle)
N-docosahexaenoyl valine level vs vehicle (PND 35 STEM): ↑ (1-1.49 times higher than vehicle)
N-oleoyl leucine level vs vehicle (PND 35 STEM): ↑ (1-1.49 times higher than vehicle)
N-oleoyl proline level vs vehicle (PND 35 STEM): ↑ (1-1.49 times higher than vehicle)
N-oleoyl valine level vs vehicle (PND 35 STEM): ↑ (1-1.49 times higher than vehicle)
N-palmitoyl leucine level vs vehicle (PND 35 STEM): ↑ (1-1.49 times higher than vehicle)
N-palmitoyl phenylalanine level vs vehicle (PND 35 STEM): ↑ (1-1.49 times higher than vehicle)
N-palmitoyl proline level vs vehicle (PND 35 STEM): ↑ (1-1.49 times higher than vehicle)
N-palmitoyl tryptophan level vs vehicle (PND 35 STEM): ↓ (1-1.49 times lower than vehicle)
N-palmitoyl valine level vs vehicle (PND 35 STEM): ↑ (1-1.49 times higher than vehicle)
PGE2 level vs vehicle (PND 35 STEM): ↑ (1-1.49 times higher than vehicle)
number of lipids changed (PND 35 STEM, 70 detected): 16
2-arachidonoyl glycerol level vs vehicle (PND 35 STR): ↓ (1-1.49 times lower than vehicle)
2-linoleoyl glycerol level vs vehicle (PND 35 STR): ↓↓ (1.50-1.99 times lower than vehicle)
2-oleoyl glycerol level vs vehicle (PND 35 STR): ↓ (1-1.49 times lower than vehicle)
N- stearoyl valine level vs vehicle (PND 35 STR): ↑ (1-1.49 times higher than vehicle)
N-arachidonoyl GABA level vs vehicle (PND 35 STR): ↓↓ (1.50-1.99 times lower than vehicle)
N-arachidonoyl alanine level vs vehicle (PND 35 STR): ↓ (1-1.49 times lower than vehicle)
N-arachidonoyl glycine level vs vehicle (PND 35 STR): ↓ (1-1.49 times lower than vehicle)
N-arachidonoyl phenylalanine level vs vehicle (PND 35 STR): ↓ (1-1.49 times lower than vehicle)
N-arachidonoyl serine level vs vehicle (PND 35 STR): ↓↓ (1.50-1.99 times lower than vehicle)
N-arachidonoyl taurine level vs vehicle (PND 35 STR): ↓ (1-1.49 times lower than vehicle)
N-arachidonoyl tyrosine level vs vehicle (PND 35 STR): ↓ (1-1.49 times lower than vehicle)
N-docosahexaenoyl GABA level vs vehicle (PND 35 STR): ↓ (1-1.49 times lower than vehicle)
N-docosahexaenoyl alanine level vs vehicle (PND 35 STR): ↓ (1-1.49 times lower than vehicle)
N-docosahexaenoyl ethanolamine level vs vehicle (PND 35 STR): ↓ (1-1.49 times lower than vehicle)
N-docosahexaenoyl leucine level vs vehicle (PND 35 STR): ↑ (1-1.49 times higher than vehicle)
N-docosahexaenoyl serine level vs vehicle (PND 35 STR): ↓ (1-1.49 times lower than vehicle)
N-oleoyl GABA level vs vehicle (PND 35 STR): ↓ (1-1.49 times lower than vehicle)
N-oleoyl alanine level vs vehicle (PND 35 STR): ↓ (1-1.49 times lower than vehicle)
N-oleoyl ethanolamine level vs vehicle (PND 35 STR): ↓↓ (1.50-1.99 times lower than vehicle)
N-oleoyl glycine level vs vehicle (PND 35 STR): ↓ (1-1.49 times lower than vehicle)
N-palmitoyl ethanolamine level vs vehicle (PND 35 STR): ↓ (1-1.49 times lower than vehicle)
N-palmitoyl leucine level vs vehicle (PND 35 STR): ↑ (1-1.49 times higher than vehicle)
N-palmitoyl valine level vs vehicle (PND 35 STR): ↑↑ (1.50-1.99 times higher than vehicle)
N-stearoyl alanine level vs vehicle (PND 35 STR): ↓ (1-1.49 times lower than vehicle)
N-stearoyl leucine level vs vehicle (PND 35 STR): ↓ (1-1.49 times lower than vehicle)
N-stearoyl serine level vs vehicle (PND 35 STR): ↓ (1-1.49 times lower than vehicle)
PGE2 level vs vehicle (PND 35 STR): ↑ (1-1.49 times higher than vehicle)
